Patent US4273765A, “Amino sugar derivatives containing trehalose” (Hoffmann-La Roche Inc., priority 1978, dated 1981)

Assays:
Solubility in solvents = format: physicochemical
Excerpt: (h) Solubility in solvents:

Titration (in water) = format: physicochemical
E. coli NIHJ = test: Antimicrobial spectrum, agar-dilution method; format: cell-based
E. coli NIHJ SMf = test: Antimicrobial spectrum, agar-dilution method; format: cell-based
E. coli NIHJ STf = test: Antimicrobial spectrum, agar-dilution method; format: cell-based
E. coli K-12 ML1630 = test: Antimicrobial spectrum, agar-dilution method; format: cell-based; settings: E. coli K-12 ML1630, agar-dilution
E. coli CF17 = test: Antimicrobial spectrum, agar-dilution method; format: cell-based
E. coli CF41 = test: Antimicrobial spectrum, agar-dilution method; format: cell-based
[1] = tested on: Salmonella typhimurium IFO12529; test: Antimicrobial spectrum, agar-dilution method; format: cell-based
Citrobacter = test: Antimicrobial spectrum, agar-dilution method; format: cell-based
Shigella flexneri = test: Antimicrobial spectrum, agar-dilution method; format: cell-based
[2] = tested on: Klebsiella pneumoniae PCI602; test: Antimicrobial spectrum, agar-dilution method; format: cell-based
[3] = tested on: Pseudomonas aeruginosa IFO12689; test: Antimicrobial spectrum, agar-dilution method; format: cell-based
[4] = tested on: Pseudomonas aeruginosa A3; test: Antimicrobial spectrum, agar-dilution method; format: cell-based
[5] = tested on: Pseudomonas aeruginosa P2; test: Antimicrobial spectrum, agar-dilution method; format: cell-based
[6] = tested on: Proteus vulgaris OX19 ATCC6898; test: Antimicrobial spectrum, agar-dilution method; format: cell-based
[7] = tested on: Bordetella bronchiseptica Aichi 202; test: Antimicrobial spectrum, agar-dilution method; format: cell-based; settings: Bordetella bronchiseptica Aichi 202, agar-dilution
Proteus rettgeri = test: Antimicrobial spectrum, agar-dilution method; format: cell-based
[8] = tested on: Serratia marcescens IFO12648; test: Antimicrobial spectrum, agar-dilution method; format: cell-based
[9] = tested on: Staphylococcus aureus FDA209P; test: Antimicrobial spectrum, agar-dilution method; format: cell-based
[10] = tested on: Staphylococcus aureus MS3937; test: Antimicrobial spectrum, agar-dilution method; format: cell-based
[11] = tested on: Staphylococcus aureus MS9261; test: Antimicrobial spectrum, agar-dilution method; format: cell-based
[12] = tested on: Staphylococcus aureus Smith; test: Antimicrobial spectrum, agar-dilution method; format: cell-based
[13] = tested on: Bacillus subtilis PCI 219; test: Antimicrobial spectrum, agar-dilution method; format: cell-based; settings: Bacillus subtilis PCI 219, agar-dilution
Sarcina lutea ATCC 9341 = test: Antimicrobial spectrum, agar-dilution method; format: cell-based; settings: Sarcina lutea ATCC 9341, agar-dilution
Candida albicans Yu1200 = test: Antimicrobial spectrum, agar-dilution method; format: cell-based
[14] = tested on: Mycobacterium smegmatis ATCC607; test: Antimicrobial spectrum, agar-dilution method; format: cell-based
[15] = molecular target: T1, porcine pancreatic α-amylase (Sus scrofa, UniProt P00690); test: Porcine pancreatic α-amylase inhibitory activity (Bernfeld assay); format: biochemical; settings: IU = amount giving 50% inhibition of 2 units porcine pancreatic α-amylase, pH 6.9, 37° C.
T1 sequence (P00690 16-511): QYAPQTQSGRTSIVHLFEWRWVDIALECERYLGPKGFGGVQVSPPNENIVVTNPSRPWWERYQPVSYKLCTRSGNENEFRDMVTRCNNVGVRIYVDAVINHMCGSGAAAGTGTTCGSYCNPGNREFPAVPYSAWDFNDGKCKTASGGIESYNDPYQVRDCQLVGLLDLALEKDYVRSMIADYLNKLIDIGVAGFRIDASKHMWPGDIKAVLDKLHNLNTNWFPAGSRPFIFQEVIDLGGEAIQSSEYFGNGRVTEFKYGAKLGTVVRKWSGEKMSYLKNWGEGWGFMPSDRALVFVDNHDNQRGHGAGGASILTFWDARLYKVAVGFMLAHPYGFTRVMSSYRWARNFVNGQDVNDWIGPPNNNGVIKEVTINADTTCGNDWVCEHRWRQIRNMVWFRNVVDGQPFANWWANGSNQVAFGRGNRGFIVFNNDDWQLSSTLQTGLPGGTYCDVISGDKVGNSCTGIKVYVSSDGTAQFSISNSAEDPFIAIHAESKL
Protocol: 2 units* of porcine pancreatic α-amylase in 0.1 ml of 6.4 mM ammonium sulfate solution are added to 0.6 ml of 20 mM phosphate buffer (pH 6.9) containing 10 mM sodium chloride and different amounts of Trestatin. The mixture, after equilibration at 37° C. for 5 min. followed by the addition of 0.5 ml of 4% soluble starch solution, is incubated for 5 min. at 37° C. The reaction is terminated by the addition of 2 ml of dinitrosalicylic acid reagent prepared according to the method of P. Bernfeld. The mixture is heated on a boiling water bath for 5 min. and then diluted with 10 ml of water. Absorbance (A1) of the resulting colored solution is measured at 540 nm, and the inhibition of α-amylase activity can be calculated from the following equation: [formula] A0; absorbance without enzyme A2; absorbance without Trestatin
*1 unit of the α-amylase is the amount of enzyme which catalyzes under the above conditions without Trestatin the formation of reducing sugars equivalent to 1 μmol of maltose.
Each of said inhibitory activities was determined by the method mentioned above.

[16] = tested on: hyperglycemia induced by cooked rice starch; test: Inhibition of hyperglycemia induced by cooked rice starch, rats; format: in vivo; settings: p.o., dose causing after 20 minutes a 20 percent decrease of hyperglycemia, 2 g/kg cooked rice starch
Protocol: (§1) **ED20 is defined as the dose causing after 20 minutes a 20 percent
(§2) decrease of hyperglycemia induced by oral administration of 2 g/kg body
(§3) weight cooked rice starch.

[17] = tested on: hyperglycemia induced by cooked rice starch; test: Inhibition of hyperglycemia induced by cooked rice starch, mice; format: in vivo; settings: p.o., dose causing after 20 minutes a 20 percent decrease of hyperglycemia, 2 g/kg cooked rice starch
Protocol: as §1, §2, §3

[18] = tested on: hyperglycemia (hyperinsulinemia) following an oral load of native starch; test: Hyperglycemia (hyperinsulinemia) following an oral load of native starch; format: in vivo; settings: 20 min. after wheat starch
Protocol: (§4) [Plasma Glucose and insulin 20 min. after carbohydrate ± Trestatin (1.
g wheat starch/kg or 3.2 g sucrose/kg)]

[19] = tested on: hyperglycemia following an oral load of sucrose; test: Hyperglycemia following an oral load of sucrose; format: in vivo; settings: dose/kg 30.0 mg; 20 min. after 3.2 g sucrose/kg
Protocol: as §4
g wheat starch/kg or 3.2 g sucrose/kg)]

Salmonella paratyphi B = settings: agar-dilution
rats = test: Acute toxicity, oral, rats; settings: 500 mg/kg administered to rats orally (65-700 times the effective dosage)

C[C@H]1O[C@H](O[C@H]2[C@H](O)[C@@H](O)[C@@H](O[C@H]3[C@H](O)[C@@H](O)[C@@H](O[C@H]4[C@H](O)[C@@H](O)[C@@H](O[C@H]5O[C@H](CO)[C@@H](O)[C@H](O)[C@H]5O)O[C@@H]4CO)O[C@@H]3CO)O[C@@H]2CO)[C@H](O)[C@@H](O)[C@@H]1N[C@H]1C=C(CO)[C@@H](O[C@H]2O[C@H](CO)[C@@H](O[C@H]3O[C@H](C)[C@@H](NC4C=C(CO)[C@@H](O[C@H]5O[C@H](CO)[C@@H](O[C@H]6O[C@H](C)[C@@H](NC7C=C(CO)[C@@H](O)[C@H](O)[C@H]7O)[C@H](O)[C@H]6O)[C@H](O)[C@H]5O)[C@H](O)[C@H]4O)[C@H](O)[C@H]3O)[C@H](O)[C@H]2O)[C@H](O)[C@H]1O (some centres unmarked) [Trestatin C]
Solubility in acetone (Solubility in solvents; acetone): slightly soluble
Solubility in chloroform (Solubility in solvents; chloroform): insoluble
Solubility in dimethylsulfoxide (Solubility in solvents; dimethylsulfoxide): soluble
Solubility in ethanol (Solubility in solvents; ethanol): slightly soluble
Solubility in ethyl acetate (Solubility in solvents; ethyl acetate): insoluble
Solubility in water (Solubility in solvents; water): easily soluble
pKa' (Titration (in water)): 5.0
Antimicrobial spectrum (E. coli NIHJ): > 100 µg/mL
Antimicrobial spectrum (E. coli NIHJ SMf): > 100 µg/mL
Antimicrobial spectrum (E. coli NIHJ STf): > 100 µg/mL
Antimicrobial spectrum (E. coli K-12 ML1630): > 100 µg/mL
Antimicrobial spectrum (E. coli CF17): > 100 µg/mL
Antimicrobial spectrum (E. coli CF41): > 100 µg/mL
Antimicrobial spectrum [1]: > 100 µg/mL
Antimicrobial spectrum (Citrobacter): > 100 µg/mL
Antimicrobial spectrum (Shigella flexneri): > 100 µg/mL
Antimicrobial spectrum [2]: > 100 µg/mL
Antimicrobial spectrum [3]: > 100 µg/mL
Antimicrobial spectrum [4]: > 100 µg/mL
Antimicrobial spectrum [5]: > 100 µg/mL
Antimicrobial spectrum [6]: > 100 µg/mL
Antimicrobial spectrum [7]: > 100 µg/mL
Antimicrobial spectrum (Proteus rettgeri): > 100 µg/mL
Antimicrobial spectrum [8]: > 100 µg/mL
Antimicrobial spectrum [9]: > 100 µg/mL
Antimicrobial spectrum [10]: > 100 µg/mL
Antimicrobial spectrum [11]: > 100 µg/mL
Antimicrobial spectrum [12]: > 100 µg/mL
Antimicrobial spectrum [13]: > 100 µg/mL
Antimicrobial spectrum (Sarcina lutea ATCC 9341): > 100 µg/mL
Antimicrobial spectrum (Candida albicans Yu1200): > 100 µg/mL
Antimicrobial spectrum [14]: > 100 µg/mL
Inhibitory activities [15]: 4.9 × 10^7 IU/g
ED20, inhibition of hyperglycemia induced by cooked rice starch [16]: 3.0 mg/kg
ED20, inhibition of hyperglycemia induced by cooked rice starch [17]: 0.7 mg/kg
Plasma glucose, starch - load ([18]; dose/kg 0.3 mg): 71% of carbohydrate primed controls
Plasma insulin, starch - load ([18]; dose/kg 0.3 mg): 51% of carbohydrate primed controls
Plasma glucose, starch - load ([18]; dose/kg 1.0 mg): 60% of carbohydrate primed controls
Plasma insulin, starch - load ([18]; dose/kg 1.0 mg): 51% of carbohydrate primed controls
Plasma glucose, starch - load ([18]; dose/kg 3.0 mg): 58% of carbohydrate primed controls
Plasma insulin, starch - load ([18]; dose/kg 3.0 mg): 63% of carbohydrate primed controls
Plasma glucose, sucrose - load [19]: 85% of carbohydrate primed controls
Antimicrobial spectrum (Salmonella paratyphi B): > 100 µg/mL
Acute toxicity (rats): not observed
